Results: PubChem BioAssay (NCI)
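In this assay, cells in 96-well plates receive the compound at five concentrations for 48 hours. Endpoints are linearly interpolated between the surrounding concentrations. Definition used: TGI = concentration required for complete inhibition of growth.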

Experiments:
Test in all cases: NCI tumour cell line growth inhibition, 48 h
[1] = tested on: XF 498 CNS
[2] = tested on: NCI/ADR-RES ovarian
[3] = tested on: HCT-116 colon
[4] = tested on: HCC-2998 colon
[5] = tested on: HOP-62 NSCLC
[6] = tested on: HOP-92 NSCLC
[7] = tested on: A549 NSCLC
[8] = tested on: SNB-19 CNS
[9] = tested on: SK-MEL-2 melanoma
[10] = tested on: HOP-18 NSCLC
[11] = tested on: M19-MEL melanoma
[12] = tested on: OVCAR-5 ovarian
[13] = tested on: UACC-62 melanoma
[14] = tested on: EKVX NSCLC
[15] = tested on: P388/ADR leukemia
[16] = tested on: OVCAR-8 ovarian
[17] = tested on: RXF 393 renal
[18] = tested on: SN12K1 renal
[19] = tested on: K-562 leukemia
[20] = tested on: COLO 205 colon
[21] = tested on: CAKI-1 renal
[22] = tested on: LOX IMVI melanoma
[23] = tested on: DMS 114 small cell lung
[24] = tested on: SF-295 CNS
[25] = tested on: RPMI-8226 leukemia
[26] = tested on: UACC-257 melanoma
[27] = tested on: NCI-H522 lung
[28] = tested on: MOLT-4 leukemia
[29] = tested on: DLD-1 colon
[30] = tested on: SNB-75 CNS
[31] = tested on: MCF7 breast
[32] = tested on: SF-539 CNS
[33] = tested on: HL-60(TB) leukemia
[34] = tested on: HCT-15 colon
[35] = tested on: OVCAR-4 ovarian
[36] = tested on: NCI-H226 lung
[37] = tested on: NCI-H23 lung
[38] = tested on: NCI-H460 lung
[39] = tested on: KM12 colon
[40] = tested on: SK-OV-3 ovarian
[41] = tested on: UO-31 renal
[42] = tested on: SN12C renal
[43] = tested on: P388 leukemia
[44] = tested on: OVCAR-3 ovarian
[45] = tested on: U251 CNS
[46] = tested on: IGROV1 ovarian
[47] = tested on: SNB-78 CNS
[48] = tested on: A498 renal
[49] = tested on: KM20L2 colon
[50] = tested on: HT29 colon
[51] = tested on: SW-620 colon
[52] = tested on: SK-MEL-5 melanoma
[53] = tested on: DMS 273 small cell lung
[54] = tested on: CCRF-CEM leukemia
[55] = tested on: SF-268 CNS
[56] = tested on: SK-MEL-28 melanoma
[57] = tested on: MALME-3M melanoma

Compound `COC1=CC(=O)C=C(OC)C1=O` has a TGI [1] of 6.34 µM, a TGI [2] of 10.1 µM and a TGI [3] of 15.1 µM. It also gave a TGI [4] of 56.2 µM, a TGI [5] of 54.3 µM and a TGI [6] of 7.89 µM. It also gave a TGI [7] of 95.7 µM, a TGI [8] of 27 µM and a TGI [9] of 17.7 µM. The TGI [10] was 79.7 µM, the TGI [11] was 8.19 µM and the TGI [12] was 52.2 µM. It also gave a TGI [13] of 11.6 µM, a TGI [14] of 13 µM and a TGI [15] of 1.08 µM. The TGI [16] was 32.1 µM, the TGI [17] was 20.7 µM and the TGI [18] was 18 µM. For the same compound, the TGI [19] was 18 µM, the TGI [20] was 40.3 µM and the TGI [21] was 96.6 µM. It also gave a TGI [22] of 13.1 µM, a TGI [23] of 13.5 µM and a TGI [24] of 34.6 µM. It also gave a TGI [25] of 20.5 µM, a TGI [26] of 34.4 µM and a TGI [27] of 34.4 µM. For the same compound, the TGI [28] was 3.59 µM, the TGI [29] was 27.9 µM and the TGI [30] was 55.9 µM. It also gave a TGI [31] of 42.7 µM, a TGI [32] of 37.8 µM and a TGI [33] of 12.4 µM. The TGI [34] was 80.9 µM, the TGI [35] was 16.8 µM and the TGI [36] was 30.8 µM. The TGI [37] was 22.7 µM, the TGI [38] was 57.1 µM and the TGI [39] was 39.3 µM. For the same compound, the TGI [40] was 40.3 µM, the TGI [41] was 54.1 µM and the TGI [42] was 35.1 µM. The TGI [43] was 1.25 µM, the TGI [44] was 32.2 µM and the TGI [45] was 64.5 µM. It also gave a TGI [46] of 31.3 µM, a TGI [47] of 56.8 µM and a TGI [48] of 3.39 µM. It also gave a TGI [49] of 66.8 µM, a TGI [50] of 65.3 µM and a TGI [51] of 13.5 µM. It also gave a TGI [52] of 37.5 µM, a TGI [53] of 76.8 µM and a TGI [54] of 4.88 µM. The TGI [55] was 15.3 µM, the TGI [56] was 46.5 µM and the TGI [57] was 51 µM.
